The subject of one series is Sphaerotheca fuliginea. Kind of series: In vivo preventive test on Sphaerotheca fuliginea (cucumber). To be noted: 500 ppm of active ingredient, evaluated 7 days after inoculation. In outline:
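Young cucumber plants sprayed with compound (in DMF with alkylarylpolyglycolether emulsifier, diluted in water) at the stated application rate. Inoculated one day later with aqueous Sphaerotheca fuliginea spore suspension. Plants then held in greenhouse at approximately 23° C and approximately 70% relative humidity.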

Another series deals with Pyrenophora teres. Kind of series: In vivo preventive test on Pyrenophora teres (barley). To be noted: 500 ppm of active ingredient, evaluated 7-9 days after inoculation. In a few lines: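 Compound formulated in N,N-dimethylformamide with alkylaryl polyglycol ether emulsifier and diluted in water, then sprayed on young barley plants at the stated application rate. Plants inoculated one day later with aqueous Pyrenophora teres spore suspension, testing preventive protection.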

Another series concerns Septoria tritici. Kind of series: In vivo preventive test on Septoria tritici (wheat). The settings on record: 500 ppm of active ingredient, evaluated 21 days after inoculation. In outline:
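Compound formulated in N,N-dimethylacetamide with alkylaryl polyglycol ether emulsifier and diluted in water to the stated rate. Young wheat plants sprayed preventively; after the deposit dried, they were inoculated with a Septoria tritici spore suspension.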

In series [1] the test system is Blumeria graminis fsp. hordei. Kind of series: In vivo preventive test on Blumeria graminis (barley). The settings on record: 500 ppm of active ingredient, evaluated 7 days after inoculation. In a few lines: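 Active compound taken up in N,N-dimethylacetamide with alkylaryl polyglycol ether emulsifier, then diluted in water to the desired concentration. Young barley plants sprayed at the stated application rate; once the coating had dried, plants were dusted with Blumeria graminis f. sp. hordei spores.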

Another series deals with Fusarium graminearum. The settings on record: in vivo.
The test system of another series is Leptosphaeria nodorum. As to the kind of experiment: In vivo preventive test on Leptosphaeria nodorum (wheat). To be noted: 500 ppm of active ingredient, evaluated 7-9 days after inoculation. In a few lines: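 Compound formulated in N,N-dimethylacetamide with alkylaryl polyglycol ether emulsifier and diluted with water. Young wheat plants were sprayed at the stated application rate, then inoculated one day later with an aqueous spore suspension of L. nodorum.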

In a further series the test system is Puccinia triticina. Kind of series: In vivo preventive test on Puccinia triticina (wheat). The settings on record: Table K, 500 ppm of active ingredient, evaluated 8 days after inoculation.
For series [2], the system named is aflatoxines produced by Aspergillus parasiticus. As to the kind of experiment: microbe, parasite or virus in culture. It counts as cell-based.
A further series deals with Aspergillus parasiticus. As to the kind of experiment: microbe, parasite or virus in culture. The format is cell-based.
A short description of series [3]: log P by HPLC on reversed-phase column (EEC Directive 79/831 Annex V.A8). The format is physicochemical. As to the method:
In table 1, the log P values were determined in accordance with EEC Directive 79/831 Annex V.A8 by HPLC (High Performance Liquid Chromatography) on a reversed-phase column (C18), using the method described below: Temperature: 40° C.; […]

A further series concerns Alternaria solani. Kind of series: In vivo preventive test on Alternaria solani (tomato). To be noted: 500 ppm of active ingredient, evaluated 7 days after inoculation. In outline:
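Young tomato plants sprayed preventively with compound in DMF/alkylarylpolyglycolether emulsion diluted in water to the stated rate. Inoculation with aqueous Alternaria solani spore suspension one day after treatment.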

Another series has as its system Venturia inaequalis. Kind of series: In vivo preventive test on Venturia inaequalis (apple scab). The settings on record: 100 ppm of active ingredient, evaluated 10 days after inoculation. In outline: (§1)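 Young plants sprayed preventively at the stated application rate with compound dissolved in acetone/N,N-dimethylacetamide plus alkylaryl polyglycol ether emulsifier and diluted with water to the desired concentration.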

In the next series the test system is Uromyces appendiculatus. As to the kind of experiment: In vivo preventive test on Uromyces appendiculatus (beans). The settings on record: 100 ppm of active ingredient, evaluated 10 days after inoculation. In outline: as §1
The test system of another series is Botrytis cinerea. As to the kind of experiment: In vivo preventive test on Botrytis cinerea (beans). The settings on record: Table L, 500 ppm of active ingredient, lesion size 2 days after inoculation. In outline:
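Young bean plants sprayed preventively with compound in acetone/dimethylacetamide/emulsifier diluted in water; after drying, each leaf inoculated with 2 agar pieces bearing Botrytis cinerea. Kept dark at 20° C, 100% humidity; lesion size scored at 2 days as % efficacy (0% = untreated, 100% = no disease).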

The values below come from patent US8999956B2, “N-[(het)arylalkyl)] pyrazole(thio)carboxamides and their heterosubstituted analogues” (Bayer Intellectual Property GmbH, priority 2010, dated 2015).

The structures appear in SMILES notation. Read-outs that look alike come from different tables or passages of the source.

By logP is commonly meant a log measure of how a compound divides between an organic and an aqueous phase. With `Cn1nc(C(F)F)c(C(=O)N(CCOc2c(Cl)cccc2Cl)C2CC2)c1F` [Example 162], the Efficacy with Sphaerotheca fuliginea stood at 95%; with Pyrenophora teres it was 95%; with Septoria tritici, 90%; in series [1], 100%; in the series on Fusarium graminearum it was 100%; in the series with Leptosphaeria nodorum it was 90%. In the series on Puccinia triticina, the Efficacy turned out to be 80%. Also, in [2] (50 µM), the “% Inhibition of Aflatoxin at 50 μM” value was determined as 100%. Further, the “% Inhibition of fungal growth at 50 μM” value in the series with Aspergillus parasiticus (50 µM) amounted to 100%. This molecule also displayed a logP in [3] of 3.55.

Regarding `Cn1nc(C(F)F)c(C(=O)N(CC#Cc2ccccc2)C2CC2)c1F` [Example 271], the Efficacy stood at 98% with Sphaerotheca fuliginea; 95% in the series on Pyrenophora teres; 88% with Septoria tritici; 78% in [1]; 93% with Fusarium graminearum; 90% in the series with Leptosphaeria nodorum. Further, the Efficacy with Puccinia triticina was found to be 89%. For the same molecule, the logP in [3] is 3.19.

As for `CC(CCc1ccc(Cl)c(Cl)c1)N(C(=O)c1c(C(F)F)nn(C)c1F)C1CC1` (racemic) [Example 129], the Efficacy in the series with Sphaerotheca fuliginea is given as 100%; in the series with Alternaria solani it was 100%; with Pyrenophora teres, 100%; with Venturia inaequalis, 100%; with Septoria tritici, 80%; in [1], 100%. The Efficacy in the series on Fusarium graminearum is on record as 100%; with Leptosphaeria nodorum, 100%; with Uromyces appendiculatus, 99%; with Puccinia triticina, 70%. Also, the “% Inhibition of Aflatoxin at 50 μM” value in series [2] is reported as 100%. Also, the “% Inhibition of fungal growth at 50 μM” value in the series on Aspergillus parasiticus came to 100%. Besides, the lipophilicity (logP) in [3] was 4.44.

Turning to `Cn1nc(C(F)F)c(C(=O)N(C[Si](C)(C)Cc2ccccc2)C2CC2)c1F` [Example 288], the Efficacy turned out to be 94% in the series with Sphaerotheca fuliginea; 100% in the series with Alternaria solani; 100% in the series with Pyrenophora teres; 100% in the series on Venturia inaequalis; 90% in the series on Septoria tritici; 100% in series [1]. The Efficacy in the series on Fusarium graminearum was found to be 100%; in the series on Leptosphaeria nodorum, 100%; with Uromyces appendiculatus, 100%; in the series with Puccinia triticina, 95%; with Botrytis cinerea, 100%. In addition, in [2], the “% Inhibition of Aflatoxin at 50 μM” value came out at 100%. Besides, in the series with Aspergillus parasiticus, the “% Inhibition of fungal growth at 50 μM” value was 99%. This molecule had a logP in [3] of 4.03.

On to `Cn1nc(C(F)F)c(C(=O)N(C2CC2)C2CCCCC2Cc2ccccc2)c1F` (mixture of isomers) [Example 243], for which the Efficacy (in the series with Sphaerotheca fuliginea; with Alternaria solani; with Pyrenophora teres; with Venturia inaequalis; in the series with Septoria tritici; in [1]) was 100% each time. Moreover, the Efficacy in the series with Fusarium graminearum amounted to 100%; with Leptosphaeria nodorum it was 100%; in the series with Uromyces appendiculatus it was 98%; with Puccinia triticina it was 100%; in the series on Botrytis cinerea, 90%. Moreover, the “% Inhibition of Aflatoxin at 50 μM” value in [2] was 100%. Also, the “% Inhibition of fungal growth at 50 μM” value in the series with Aspergillus parasiticus is given as 100%.

`CC(COc1ccc(Cl)cc1Cl)N(C(=O)c1c(C(F)F)nn(C)c1F)C1CC1` (stereo not shown) [Example 187]: the Efficacy (with Sphaerotheca fuliginea; in the series on Pyrenophora teres; in the series on Venturia inaequalis; with Septoria tritici; in series [1]; in the series on Fusarium graminearum) was 100% each time. Further, the results for the Efficacy in the series with Leptosphaeria nodorum, in the series with Uromyces appendiculatus and in the series with Puccinia triticina were 90%, 95% and 95%, respectively. Further, in series [2], the “% Inhibition of Aflatoxin at 50 μM” value is 100%. For the same molecule, the “% Inhibition of fungal growth at 50 μM” value with Aspergillus parasiticus was 100%. Besides, the logP in series [3] is recorded as 4.16.
